# Experiments:
# [1] = tested on: Salmonella typhimurium; experiment: Ames assay; conditions: five histidine requiring strains
# [2] = tested on: CYP7A (cholesterol 7α hydroxylase); experiment: Inhibition of CYP7A, cholesterol 7α-hydroxylase activity (Rotstein et al. 1992); conditions: assuming intrahepatic concentration approximately 20% of total plasma concentration
compound,measurement,setting,value
"CC(=O)N1CCN(c2ccc(OC[C@@H]3CO[C@@](Cn4ccnc4)(c4ccc(Cl)cc4Cl)O3)cc2)CC1 [DIO-902, 2S,4R cis-1-acetyl-4-[4-[[2-(2,4-dichlorophenyl)-2-(1H-imidazol-1-ylmethyl)-1,3-dioxolan-4-yl]methoxyl]phenyl]piperazine]","genotoxicity, Ames assay",[1],negative
same,total plasma concentration required to inhibit intrahepatic CYP7A,[2],12 microM and approximately 6.3 microg/mL

# — patent publication US11478471B2, “Methods and compositions for treating diabetes, metabolic syndrome and other conditions” (priority 2005, dated 2022)
